# Results published in patent US7135615B2, “Chromosome doubling method” (The Curators of the University of Missouri, priority 2001, dated 2006).
# Values joined by “and” are separate entries in the source; they are usually repeats but may differ in a detail not shown here. Equal values may be shown once. Marks after values point to notes of the source that are not given here.
# How the values were obtained:
# [1] = test system: maize haploid seedlings of origin Oh43; test: doubled haploid production trial, Oh43 haploids (Example 4); details: for Ear: Plants with kernels after selfing % / Tassel: No. of fertile anthers extruded/tassel / Tassel: Plants with fertile sectors % / Ear: Plants with kernels after selfing No. / Tassel: Plants with fertile sectors No. / No. of plants Survived / Ear: No. of kernels produced/ear: 600 kPa, 2 days; for Ear: No. of kernels produced/ear: selfed
# Procedure: (§1) Ten to nineteen plants were treated for each plot. Self pollinations were conducted on these treated haploids if there were fertile sectors on the tassel. Pollen grains were collected carefully on a sheet of paper and transferred to the silks repeatedly. Silks and husks were cut back prior to pollination in order to permit maximum seed set. The numbers of fertile tassel and ear sectors, as well as the numbers of anthers and selfed kernels were recorded. Statistical analyses were as described above.
# [2] = test system: maize haploid seedlings of origin B55 × A619; test: doubled haploid production trial, B55 × A619 haploids (Example 4); details: 600 kPa, 2 days; for Ear: No. of kernels produced/ear: selfed
# Procedure: as §1
# [3] = test system: maize Oh43 haploid seedlings; test: nitrous oxide gas treatment at 3–8 leaf stages, Oh43 haploids (Example 3); details: for Ear (open pollinated): No. of fertile sectors /ear / Ear (open pollinated): No. of kernels produced /ear / Ear (open pollinated): Plants with fertile sectors % / No. of tassel branch Average / Plant height (cm) Average / Tassel: No. of fertile anthers extruded/tassel / Tassel: No. of fertile sectors/tassel / Tassel: Plants with fertile sectors % / Ear (open pollinated): Plants with fertile sectors No. / Tassel: Plants with fertile sectors No. / No. of plants Survived: 600 kPa, 2 days
# From the text: Leaf stages were defined as follows, At the 3 leaf stage, there are three elongated leaves and the tip of the fourth leaf appears at the center of the leaf whorl. This stage is defined as V2 according to Ritchie et al. (1997). At the 8 leaf stage, there are 8 elongated leaves and the tip of the 9th and 10th leaves appear at the center of the leaf whorl (late V5 stage). At the 6 leaf stage, six elongated leaves are observable, and the tip of seventh leaf appears at the leaf whorl (late V4 or early V5 stage). Nine to sixteen haploid plants were treated at each stage using a large air tight iron chamber (FIG. 3). […] Moistened calcium hydroxide (50 g) wrapped in a paper towel was included to absorb carbon dioxide that is produced by the seedlings, as carbon dioxide at high concentration will injure the seedlings during the treatment. The soil of the pots was dried prior to treatment to prevent root injuries. […] The gas was introduced slowly into the chamber over a 10 minutes time frame.
# After the treatment, seedlings were transplanted into larger pots, and grown in a greenhouse. A relatively cool temperature (below 25° C.) was maintained to permit the appropriate development of doubled sectors. At flowering, the ears were cross pollinated by an appropriate pollen source to reveal all the fertile sectors on the ears. On the treated plants, plant height (cm), tassel size (cm), number of tassel branches, ear length (cm), the number of fertile sectors on a tassel and an ear, the number of anthers on a tassel, and the number of kernels on an ear were recorded.
# Analyses of variance and Duncan's Multiple Range Tests were performed to determine the effects of treatments on the plant height (cm), tassel size (cm), and ear length (cm). Chi square tests were used to determine the effects of treatments upon the proportion of plants that developed fertile tassel and ear sectors. The ratios of untreated plants with fertile sectors were used to estimate the significance of the ratio of treated plants with fertile sectors.
# Nonparametric tests were performed to compare the distributions. The primary test was the Kruskal-Wallis test. In the initial tests, the null hypothesis considered was that the distributions would be the same for each treatment and control. If the null hypothesis was rejected (P<0.05), then pair wise comparisons of each treatment to the control using Dunn's method were conducted. The tassel branch number was low incidence count data and was analyzed using the same nonparametric tests mentioned above.
# [4] = Oh43 haploids, 5 leaf stage, 14 survived
# [5] = Oh43 haploids, 6 leaf stage, 12 survived
# [6] = Oh43 haploids, 7 leaf stage, 10 survived
smiles,measurement,setting,value
"[N-]=[N+]=O [nitrous oxide gas, nitrous oxide]",self pollination success rates after treatment,[1]; Oh43 haploids,20–30%
same,Ear: Plants with kernels after selfing %,"[1]; Oh43 haploids, 5 leaf stage",29 n.s %
same,Tassel: No. of fertile anthers extruded/tassel,"[1]; Oh43 haploids, 5 leaf stage",11.2* /tassel
same,Tassel: Plants with fertile sectors %,"[1]; Oh43 haploids, 5 leaf stage",57%
same,Ear: Plants with kernels after selfing No.,[1]; [4],4
same,Tassel: Plants with fertile sectors No.,[1]; [4],8
same,No. of plants Survived,"[1]; Oh43 haploids, 5 leaf stage, 19 treated",14
same,Ear: No. of kernels produced/ear,"[1]; Oh43 haploids, 5 leaf stage",0.6 n.s. /ear
same,Ear: Plants with kernels after selfing %,"[1]; Oh43 haploids, 6 leaf stage",17%
same,Tassel: No. of fertile anthers extruded/tassel,"[1]; Oh43 haploids, 6 leaf stage",5.7** /tassel
same,Tassel: Plants with fertile sectors %,"[1]; Oh43 haploids, 6 leaf stage",92** %
same,Ear: Plants with kernels after selfing No.,[1]; [5],2
same,Tassel: Plants with fertile sectors No.,[1]; [5],11
same,No. of plants Survived,"[1]; Oh43 haploids, 6 leaf stage, 16 treated",12
same,Ear: No. of kernels produced/ear,"[1]; Oh43 haploids, 6 leaf stage",1.0 /ear
same,Ear: Plants with kernels after selfing %,"[1]; Oh43 haploids, 7 leaf stage",10%
same,Tassel: No. of fertile anthers extruded/tassel,"[1]; Oh43 haploids, 7 leaf stage",2.6 /tassel
same,Tassel: Plants with fertile sectors %,"[1]; Oh43 haploids, 7 leaf stage",70* %
same,Ear: Plants with kernels after selfing No.,[1]; [6],1
same,Tassel: Plants with fertile sectors No.,[1]; [6],7
same,No. of plants Survived,"[1]; Oh43 haploids, 7 leaf stage, 15 treated",10
same,Ear: No. of kernels produced/ear,"[1]; Oh43 haploids, 7 leaf stage",0.1 /ear
same,Tassel: No. of fertile sectors/tassel,[1]; in vivo,0.8 /tassel and 1.3** /tassel and 1.0 /tassel
same,Ear: Plants with kernels after selfing %,[2]; 5 leaf stage,33%
same,Tassel: No. of fertile anthers extruded/tassel,[2]; 5 leaf stage,25.7** /tassel
same,Tassel: No. of fertile sectors/tassel,[2]; 5 leaf stage,1.1* /tassel
same,Tassel: Plants with fertile sectors %,[2]; 5 leaf stage,67** %
same,Ear: Plants with kernels after selfing No.,"[2]; 5 leaf stage, 15 survived",5
same,Tassel: Plants with fertile sectors No.,"[2]; 5 leaf stage, 15 survived",10
same,No. of plants Survived,"[2]; 5 leaf stage, 15 treated",15
same,Ear: No. of kernels produced/ear,[2]; 5 leaf stage,1.3 /ear
same,Ear: Plants with kernels after selfing %,[2]; 6 leaf stage,50** %
same,Tassel: No. of fertile anthers extruded/tassel,[2]; 6 leaf stage,109.9** /tassel
same,Tassel: No. of fertile sectors/tassel,[2]; 6 leaf stage,3.1** /tassel
same,Tassel: Plants with fertile sectors %,[2]; 6 leaf stage,71** %
same,Ear: Plants with kernels after selfing No.,"[2]; 6 leaf stage, 14 survived",7
same,Tassel: Plants with fertile sectors No.,"[2]; 6 leaf stage, 14 survived",10
same,No. of plants Survived,"[2]; 6 leaf stage, 14 treated",14
same,Ear: No. of kernels produced/ear,[2]; 6 leaf stage,9.5* /ear
same,Ear: Plants with kernels after selfing %,[2]; 7 leaf stage,62** %
same,Tassel: No. of fertile anthers extruded/tassel,[2]; 7 leaf stage,60.2** /tassel
same,Tassel: No. of fertile sectors/tassel,[2]; 7 leaf stage,3.9** /tassel
same,Tassel: Plants with fertile sectors %,[2]; 7 leaf stage,92** %
same,Ear: Plants with kernels after selfing No.,"[2]; 7 leaf stage, 13 survived",8
same,Tassel: Plants with fertile sectors No.,"[2]; 7 leaf stage, 13 survived",12
same,No. of plants Survived,"[2]; 7 leaf stage, 13 treated",13
same,Ear: No. of kernels produced/ear,[2]; 7 leaf stage,15.7** /ear
same,Ear (open pollinated): No. of fertile sectors /ear,[3]; 3 leaf stage,0.7 /ear
same,Ear (open pollinated): No. of kernels produced /ear,[3]; 3 leaf stage,0.5 /ear
same,Ear (open pollinated): Plants with fertile sectors %,[3]; 3 leaf stage,33%
same,No. of tassel branch Average,[3]; 3 leaf stage,3.8**
same,Plant height (cm) Average,[3]; 3 leaf stage,106 a cm
same,Tassel: No. of fertile anthers extruded/tassel,[3]; 3 leaf stage,0.0 /tassel
same,Tassel: No. of fertile sectors/tassel,[3]; 3 leaf stage,0.0 /tassel
same,Tassel: Plants with fertile sectors %,[3]; 3 leaf stage,0%
same,Ear (open pollinated): Plants with fertile sectors No.,"[3]; 3 leaf stage, 12 examined",4
same,Tassel: Plants with fertile sectors No.,"[3]; 3 leaf stage, 12 examined",0
same,No. of plants Survived,"[3]; 3 leaf stage, 12 treated",12
same,effect for increasing the fertile sectors on either tassels and ears,[3]; 3–4 leaf stage,no effect
same,"number of anthers /tassel, span over treatments",[3]; 3–8 leaf stage treatments,0–19.7 /tassel
same,"number of kernels on the ears, span over treatments",[3]; 3–8 leaf stage treatments,0.5–18.6
same,Ear (open pollinated): No. of fertile sectors /ear,[3]; 4 leaf stage,0.8 /ear
same,Ear (open pollinated): No. of kernels produced /ear,[3]; 4 leaf stage,0.8 /ear
same,Ear (open pollinated): Plants with fertile sectors %,[3]; 4 leaf stage,46%
same,No. of tassel branch Average,[3]; 4 leaf stage,4.4**
same,Plant height (cm) Average,[3]; 4 leaf stage,121 b cm
same,Tassel: No. of fertile anthers extruded/tassel,[3]; 4 leaf stage,1.5 /tassel
same,Tassel: No. of fertile sectors/tassel,[3]; 4 leaf stage,0.3 /tassel
same,Tassel: Plants with fertile sectors %,[3]; 4 leaf stage,23%
same,Ear (open pollinated): Plants with fertile sectors No.,"[3]; 4 leaf stage, 13 examined",6
same,Tassel: Plants with fertile sectors No.,"[3]; 4 leaf stage, 13 examined",3
same,No. of plants Survived,"[3]; 4 leaf stage, 13 treated",13
same,Ear (open pollinated): No. of fertile sectors /ear,[3]; 5 leaf stage,1.4 /ear
same,Ear (open pollinated): No. of kernels produced /ear,[3]; 5 leaf stage,1.8 /ear
same,Ear (open pollinated): Plants with fertile sectors %,[3]; 5 leaf stage,46%
same,No. of tassel branch Average,[3]; 5 leaf stage,2.9**
same,Plant height (cm) Average,[3]; 5 leaf stage,124 b cm
same,Tassel: No. of fertile anthers extruded/tassel,[3]; 5 leaf stage,19.7 /tassel
same,Tassel: No. of fertile sectors/tassel,[3]; 5 leaf stage,1.2* /tassel
same,Tassel: Plants with fertile sectors %,[3]; 5 leaf stage,54** %
same,Ear (open pollinated): Plants with fertile sectors No.,"[3]; 5 leaf stage, 13 examined",6
same,Tassel: Plants with fertile sectors No.,"[3]; 5 leaf stage, 13 examined",7
same,Ear (open pollinated): No. of fertile sectors /ear,[3]; 6 leaf stage,1.5 /ear
same,Ear (open pollinated): No. of kernels produced /ear,[3]; 6 leaf stage,18.6 /ear
same,Ear (open pollinated): Plants with fertile sectors %,[3]; 6 leaf stage,67%
same,No. of tassel branch Average,[3]; 6 leaf stage,5.7
same,Plant height (cm) Average,[3]; 6 leaf stage,119 b cm
same,Tassel: No. of fertile anthers extruded/tassel,[3]; 6 leaf stage,5.3 /tassel
same,Tassel: No. of fertile sectors/tassel,[3]; 6 leaf stage,1.8** /tassel
same,Tassel: Plants with fertile sectors %,[3]; 6 leaf stage,100%
same,Ear (open pollinated): Plants with fertile sectors No.,"[3]; 6 leaf stage, 12 examined",8
same,Tassel: Plants with fertile sectors No.,"[3]; 6 leaf stage, 12 examined",12
same,No. of plants Survived,"[3]; 6 leaf stage, 16 treated",12
same,Ear (open pollinated): No. of fertile sectors /ear,[3]; 7 leaf stage,0.8 /ear
same,Ear (open pollinated): No. of kernels produced /ear,[3]; 7 leaf stage,1.1 /ear
same,Ear (open pollinated): Plants with fertile sectors %,[3]; 7 leaf stage,46%
same,No. of tassel branch Average,[3]; 7 leaf stage,5.0*
same,Plant height (cm) Average,[3]; 7 leaf stage,122 b cm
same,Tassel: No. of fertile anthers extruded/tassel,[3]; 7 leaf stage,5.8** /tassel
same,Tassel: No. of fertile sectors/tassel,[3]; 7 leaf stage,2.1** /tassel
same,Tassel: Plants with fertile sectors %,[3]; 7 leaf stage,69** %
same,Ear (open pollinated): Plants with fertile sectors No.,"[3]; 7 leaf stage, 13 examined",6
same,Tassel: Plants with fertile sectors No.,"[3]; 7 leaf stage, 13 examined",9
same,No. of plants Survived,"[3]; 7 leaf stage, 16 treated",13
same,Ear (open pollinated): No. of fertile sectors /ear,[3]; 8 leaf stage,1.0 /ear
same,Ear (open pollinated): No. of kernels produced /ear,[3]; 8 leaf stage,4.1 /ear
same,Ear (open pollinated): Plants with fertile sectors %,[3]; 8 leaf stage,46%
same,No. of tassel branch Average,[3]; 8 leaf stage,5.3*
same,Plant height (cm) Average,[3]; 8 leaf stage,122 b cm
same,Tassel: No. of fertile anthers extruded/tassel,[3]; 8 leaf stage,3.1** /tassel
same,Tassel: No. of fertile sectors/tassel,[3]; 8 leaf stage,1.4** /tassel
same,Tassel: Plants with fertile sectors %,[3]; 8 leaf stage,69** %
same,Ear (open pollinated): Plants with fertile sectors No.,"[3]; 8 leaf stage, 13 examined",6
same,Tassel: Plants with fertile sectors No.,"[3]; 8 leaf stage, 13 examined",9
same,No. of plants Survived,"[3]; 8 leaf stage, 16 treated",13
